# Assay results: patent US20090233796A1, “HERBICIDAL COMPOSITION” (SYNGENTA CROP PROTECTION, INC., priority 2004, published 2009)
# What was measured:
# Format in all cases: in vivo
# COMMELINA SP. = assay: Compound (A) with nicosulfuron, weed plots; conditions: 35 g/ha
# Excerpt: In these tests, […] and Compound (A) at rates equivalent to the sum of these. The compositions were formulated as an emulsifyable concentrate (EC).
# (§1) The results in the table under each application are the percentage of the plants that were killed.
# IPOMOEA SP. = assay: Compound (A) with nicosulfuron, weed plots; conditions: 35 g/ha; 5 DAA; No. 3.10
# Method: (§2) In these tests, various weeds were treated with nicosulfuron alone at a rate equivalent to 35 g per hectare, […] and Compound (A) at rates equivalent to the sum of these. The compositions were formulated as an emulsifyable concentrate (EC).
# as §1
# ABUTILON THEOPHRASTI = assay: Compound (A) with nicosulfuron, weed plots; conditions: 35 g/ha; 27 DAA; No. 3.13
# Method: as §2, §1
# CYPERUS ESCULENTUS = assay: Compound (A) with nicosulfuron, weed plots; conditions: 35 g/ha
# Method: as §2, §1
# C[…]. = assay: Compound (A) with nicosulfuron, weed plots; conditions: 35 g/ha; 5 DAA; No. 3.8
# Method: as §2, §1
# DIGITARIA SANGUINALIS [1] = assay: Compound (A) with nicosulfuron, weed plots; conditions: 35 g/ha
# Method: as §2, §1
# […] = Compound (A) with nicosulfuron, weed plots; conditions: 35 g/ha; 58 DAA; No. 3.12
# Method: as §2, §1
# SETARIA VIRIDIS = assay: Compound (A) with nicosulfuron, weed plots; conditions: 35 g/ha; 4 DAA; No. 3.11
# Method: as §2, §1
# BRACHIARIA PLATYPHYLLA = assay: Compound (A) with nicosulfuron, weed plots; conditions: 35 g/ha
# Method: as §2, §1
# SETARIA SP. = assay: Compound (A) with nicosulfuron, weed plots; conditions: 35 g/ha; 21 DAA; No. 3.4
# Method: as §2, §1
# SESBANIA EXALTATA = assay: Compound (A) with nicosulfuron, weed plots; conditions: 35 g/ha
# Method: as §2, §1
# AMBROSIA TRIFIDA = assay: Compound (A) with nicosulfuron, weed plots; conditions: 35 g/ha; 28 DAA; No. 3.15
# Method: as §2, §1
# Euphorbia [2] = assay: Compound (A) with primisulfuron, weed plots; conditions: 45 DAA, Trial 3.20
# Excerpt: (§3) In these tests, […] and Compound (A) at rates equivalent to the sum of these. The compositions were formulated as an emulsifiable concentrate (EC).
# (§4) The results in the tables under each application are the percentage of the plants that were killed.
# Ipomoea = assay: Compound (A) with primisulfuron, weed plots; conditions: 44 DAA, Trial 3.21
# Method: In these tests, various weeds were treated with primisulfuron alone at a rate equivalent to 35 g per hectare, […] and Compound (A) at rates equivalent to the sum of these. The compositions were formulated as an emulsifiable concentrate (EC).
# as §4
# Corn = assay: Compound (A) with prosulfuron, weed plots; conditions: 13 DAA, No. 3.26
# Excerpt: as §3, §4
# Galium = assay: Compound (A) with prosulfuron, weed plots; conditions: 13 DAA, No. 3.24
# Excerpt: as §3, §4
# Brachiaria = assay: Compound (A) with prosulfuron, weed plots; conditions: 13 DAA, No. 3.27
# Method: (§5) In these tests, various weeds were treated with prosulfinuron alone at a rate equivalent to 35 g per hectare, […] and Compound (A) at rates equivalent to the sum of these. The compositions were formulated as an emulsifiable concentrate (EC).
# as §4
# Rice = assay: Compound (A) with prosulfuron, weed plots; conditions: 13 DAA, No. 3.29
# Method: as §5, §4
# Euphorbia [3] = assay: Compound (A) with prosulfuron, weed plots; conditions: 13 DAA, No. 3.28
# Method: as §5, §4
# Veronica = assay: Compound (A) with prosulfuron, weed plots; conditions: 13 DAA, No. 3.25
# Method: as §5, §4
# Wheat = assay: Compound (A) with prosulfuron, weed plots; conditions: 13 DAA, No. 3.30
# Method: as §5, §4
# Cyperus = assay: Compound (A) with sulcotrione, weed plots; conditions: 14 DAA, Trial 5.1
# Method: In these tests, various weeds were treated with sulcotrione alone at an application rate equivalent to 1420 g per hectare, […] and Compound (A) at rates equivalent to the sum of these. The compositions were formulated as an emulsifyable concentrate (EC).
# as §1
# CYNODON DACTYLON = assay: Compound (A) with glyphosate, weed plots; conditions: 840 g/ha; 82 DAA; No. 2.1
# Excerpt: (§6) The compositions were formulated as an emulsifyable concentrate (EC).
# as §1
# DIGITARIA SANGUINALIS [4] = assay: Compound (A) with glyphosate, weed plots; conditions: 840 g/ha; 52 DAA; No. 2.2
# Excerpt: as §6, §1
# HORDEUM PUSILLUM = assay: Compound (A) with glyphosate, weed plots; conditions: 840 g/ha; 13 DAA; No. 2.6
# Excerpt: as §6, §1
smiles,measurement,setting,value
"COc1cc(OC)nc(NC(=O)NS(=O)(=O)c2ncccc2C(=O)N(C)C)n1 [Nicosulfuron, nicosulfuron, reference compound]",percentage of the plants that were killed,"COMMELINA SP.; 10 DAA, No. 3.18",0%
same,percentage of the plants that were killed,"COMMELINA SP.; 17 DAA, No. 3.19",0%
same,percentage of the plants that were killed,IPOMOEA SP.,0%
same,percentage of the plants that were killed,ABUTILON THEOPHRASTI,50%
same,percentage of the plants that were killed,"CYPERUS ESCULENTUS; 7 DAA, No. 3.7",0%
same,percentage of the plants that were killed,"CYPERUS ESCULENTUS; 12 DAA, No. 3.9",0%
same,percentage of the plants that were killed,C[…].,50%
same,percentage of the plants that were killed,"DIGITARIA SANGUINALIS [1]; 4 DAA, No. 3.6",10%
same,percentage of the plants that were killed,"DIGITARIA SANGUINALIS [1]; 5 DAA, No. 3.14",0%
same,percentage of the plants that were killed,"DIGITARIA SANGUINALIS [1]; 21 DAA, No. 3.5",70%
same,percentage of the plants that were killed,[…],0%
same,percentage of the plants that were killed,SETARIA VIRIDIS,20%
same,percentage of the plants that were killed,"BRACHIARIA PLATYPHYLLA; 24 DAA, No. 3.16",35%
same,percentage of the plants that were killed,"BRACHIARIA PLATYPHYLLA; 30 DAA, No. 3.17",30%
same,percentage of the plants that were killed,SETARIA SP.,70%
same,percentage of the plants that were killed,"SESBANIA EXALTATA; 44 DAA, No. 3.3",10%
same,percentage of the plants that were killed,"SESBANIA EXALTATA; 45 DAA, No. 3.2",0%
same,percentage of the plants that were killed,AMBROSIA TRIFIDA,0%
"O=C(Nc1nc(OC(F)F)cc(OC(F)F)n1)NS(=O)(=O)c1ccccc1C(=O)O [Primisulfuron, primisulfuron, reference compound]",percentage of the plants that were killed,Euphorbia [2]; 7.5 g/ha,10%
same,percentage of the plants that were killed,Euphorbia [2]; 15 g/ha,30%
same,percentage of the plants that were killed,Euphorbia [2]; 30 g/ha,50%
same,percentage of the plants that were killed,Ipomoea; 7.5 g/ha,0%
same,percentage of the plants that were killed,Ipomoea; 15 g/ha,20%
same,percentage of the plants that were killed,Ipomoea; 30 g/ha,25%
"COc1nc(C)nc(NC(=O)NS(=O)(=O)c2ccccc2CCC(F)(F)F)n1 [Prosulfuron, prosulfuron, reference compound]",percentage of the plants that were killed,Corn; 7.5 g/ha,0%
same,percentage of the plants that were killed,Corn; 15 g/ha,0%
same,percentage of the plants that were killed,Corn; 30 g/ha,0%
same,percentage of the plants that were killed,Galium; 7.5 g/ha,30%
same,percentage of the plants that were killed,Galium; 15 g/ha,40%
same,percentage of the plants that were killed,Galium; 30 g/ha,70%
same,percentage of the plants that were killed,Brachiaria; 7.5 g/ha,0%
same,percentage of the plants that were killed,Brachiaria; 15 g/ha,0%
same,percentage of the plants that were killed,Brachiaria; 30 g/ha,0%
same,percentage of the plants that were killed,Rice; 7.5 g/ha,0%
same,percentage of the plants that were killed,Rice; 15 g/ha,0%
same,percentage of the plants that were killed,Rice; 30 g/ha,0%
same,percentage of the plants that were killed,Euphorbia [3]; 7.5 g/ha,20%
same,percentage of the plants that were killed,Euphorbia [3]; 15 g/ha,20%
same,percentage of the plants that were killed,Euphorbia [3]; 30 g/ha,30%
same,percentage of the plants that were killed,Veronica; 7.5 g/ha,0%
same,percentage of the plants that were killed,Veronica; 15 g/ha,0%
same,percentage of the plants that were killed,Veronica; 30 g/ha,15%
same,percentage of the plants that were killed,Wheat; 7.5 g/ha,0%
same,percentage of the plants that were killed,Wheat; 15 g/ha,0%
same,percentage of the plants that were killed,Wheat; 30 g/ha,0%
"CS(=O)(=O)c1ccc(C(=O)C2C(=O)CCCC2=O)c(Cl)c1 [Sulcotrione, sulcotrione]",percentage of the plants that were killed,Cyperus; 50 g/ha,25%
same,percentage of the plants that were killed,Cyperus; 100 g/ha,30%
same,percentage of the plants that were killed,Cyperus; 200 g/ha,30%
"O=C(O)CNCP(=O)(O)O [Glyphosate, glyphosate, reference compound]",percentage of the plants that were killed,CYNODON DACTYLON,0%
same,percentage of the plants that were killed,DIGITARIA SANGUINALIS [4],0%
same,percentage of the plants that were killed,HORDEUM PUSILLUM,30%
